# Test results as given in US3996360A, “Piperazine compounds” (Knoll A.G. Chemische Fabriken, priority 1974, dated 1976).
# Where two headings read alike, the source gives them in different places.
# What was measured:
# [1] = test system: left auricle of the guinea pig; assay: Functional refractory period of the left auricle, paired electrical stimulation (method of Govier); conditions: for percent lengthening of refractory period at 0.01 µM: Cavia porcellus, read-out: Antiarrhythmic Effect (Lengthening of the refractory period in percent); for percent lengthening of refractory period at 0.01 µM / Antiarrhythmic Effect (Lengthening of the refractory period in percent): Table 2, dose in each case 10^^-5 millimoles/liter; for Antiarrhythmic Effect (Lengthening of the Refractory Period) ED25: Table 1, effective dose which lengthens the refractory period by 25 percent
# Excerpt: Evidence of the anti-arrhythmic effect of the new compounds is obtained in experimental animals by determination of the functional refractory period of the left auricle of the guinea pig with the aid of paired electrical stimulation employing the method of W. C. Govier, J. Pharmacol. Exp. Therap. 148, 100 - 105 (1965). In this experimental arrangement, those anti-arrhythmic agents already known for use in therapy, of differing structure and of different points of attack in the human, all distinguish themselves by lengthening the functional refractory period. The method additionally permits a determination of the effects of the substances on the contractile force of the heart muscle [cf. Reuter and Heeg, Naunyn-Schmiedeberg's Arch. Pharmak. 268, 323 - 333 (1971) and Zettler and Strubelt, Naunyn-Schmiedeberg's Arch. Pharmak. 271, 335 - 345 (1971)].
# The testing of the substances in each case involves up to thirty individual experiments. For the dosage effect relationships, linear regression functions were calculated [A. Lindner, Statistische Methoden, 3rd Edition, Birkhaeuser Verlag, Basel (1969)], wherein the maximum percentage deviations from the starting value over a period of up to 60 minutes after addition of the test substance to the bath fluid were employed.
# In following Table 1, column I, the optical isomers of one of the compounds of the invention and known anti-arrhythmic agents are named. Column II reports their anti-arrhythmic effect. Column III gives the inotropic effect, and column IV represents the therapeutic breadth of the compounds. The ED25 is the effective dose which lengthens the refractory period by 25 percent or reduces the contractile force by 25 percent.
# The dose in each case is 10^^-5 millimoles/liter.
# [2] = test system: left auricle of the guinea pig; assay: Inotropic effect: contractile force of the heart muscle (left auricle); conditions: Table 1; for Inotropic Effect (Decrease in Contractile Force) ED25: effective dose which reduces the contractile force by 25 percent; for Therapeutic Breadth (III/II): ratio inotropic ED25 / antiarrhythmic ED25
# Excerpt: (§1) Evidence of the anti-arrhythmic effect of the new compounds is obtained in experimental animals by determination of the functional refractory period of the left auricle of the guinea pig with the aid of paired electrical stimulation employing the method of […]. Pharmacol. Exp. Therap. 148, 100 - 105 (1965). In this experimental arrangement, those anti-arrhythmic agents already known for use in therapy, of differing structure and of different points of attack in the human, all distinguish themselves by lengthening the functional refractory period. The method additionally permits a determination of the effects of the substances on the contractile force of the heart muscle [cf. Reuter and Heeg, Naunyn-Schmiedeberg's Arch. Pharmak. 268, 323 - 333 (1971) and Zettler and Strubelt, Naunyn-Schmiedeberg's Arch. Pharmak. 271, 335 - 345 (1971)]. The testing of the substances in each case involves up to thirty individual experiments. For the dosage effect relationships, linear regression functions were calculated [[…] Methoden, 3rd Edition, Birkhaeuser Verlag, Basel (1969)], wherein the maximum percentage deviations from the starting value over a period of up to 60 minutes after addition of the test substance to the bath fluid were employed. In following Table 1, column I, the optical isomers of one of the compounds of the invention and known anti-arrhythmic agents are named. Column II reports their anti-arrhythmic effect. Column III gives the inotropic effect, and column IV represents the therapeutic breadth of the compounds. The ED25 is the effective dose which lengthens the refractory period by 25 percent or reduces the contractile force by 25 percent.
# [3] = test system: disturbances of the heart-beat rhythm; assay: Aconitine-induced disturbances of the heart rhythm, long term effect after peroral treatment; assay type: in vivo; conditions: rats, perorally 400 mg/kg, eight hours after administration, vs untreated animals
# Excerpt: (§2) The anti-arrhythmic effect of the new compounds can also be determined in intact test animals by experimentally-induced disturbances of the heart rhythm. If rats are continually infused intravenously with aconitine, serious disturbances of the heart-beat rhythm, such as extrasystoles, ventricular tachycardia, and ventricular flutter, which disturbances eventually lead to the death of the test animals, are evident in an electrocardiogram. […] Bianchi et al., Arzneim. Forsch. 18, 845 - 850 (1968); Haas and Busch, Arzneim. Forsch. 18, 401 - 407 (1968); Haas et al., Arzneim. Forsch. 21, 1392 - 1399 (1971); Marmo, Naunyn-Schmiedeberg's Arch. Pharmak. 269, 231 - 247 (1971); Strubelt et al., Naunym-Schmiedeberg's Arch. Pharmak. 271, 346 - 360 ( 1971)].
# [4] = test system: disturbances of the heart-beat rhythm; assay: Aconitine-induced disturbances of the heart rhythm, intravenous pretreatment; assay type: in vivo, rats; conditions: for ED25 / ED50: Rattus norvegicus; for Ventricular Flutter ED25: dose raising administered aconitine dose by 25 percent prior to ventricular flutter; for Ventricular Flutter ED50: dose raising administered aconitine dose by 50 percent prior to ventricular flutter
# Excerpt: as §2
# The ED25 and ED50 are the intravenous doses, in mg/kg, which raise the administered aconitine doses, in comparison with the aconitine control, by 25 percent or 50 percent prior to the appearance of extrasystoles, ventricular tachycardia, and ventricular flutter.
# [5] = Inotropic effect: contractile force of the heart muscle (left auricle); parameters: species or system guinea pig; conditions: guinea pig, left auricle, Table 1; ratio inotropic ED25 / antiarrhythmic ED25; read-out: Therapeutic Breadth (III/II)
# Excerpt: as §1
# [6] = intravenous, dose raising administered aconitine dose by 25 percent prior to ventricular tachycardia, read-out: Ventricular Tachycardia ED25
# [7] = intravenous, dose raising administered aconitine dose by 50 percent prior to ventricular tachycardia, read-out: Ventricular Tachycardia ED50
compound,measurement,setting,value
"COc1ccc(CC2(C)CN(C(c3ccccc3)c3ccccc3)CCN2)cc1OC (stereo not drawn) [1-diphenylmethyl-3-methyl-3-(3,4-dimethoxybenzyl)-piperazine] [listing 1 of 2 here]",effectiveness (in words),[1],outstanding
"COc1ccc(CC2(C)CN(C(c3ccccc3)c3ccccc3)CCN2)cc1OC (stereo not drawn) [1-diphenylmethyl-3-methyl-3-(3,4-dimethoxybenzyl)-piperazine] [listing 2 of 2 here]",percent lengthening of refractory period at 0.01 µM,[1],46%
"CCCCN1CCN(C(c2ccccc2)c2ccccc2)CC1(C)Cc1ccc(OC)c(OC)c1 (stereo not drawn) [(D)-1-diphenylmethyl-3-methyl-3-(3,4-dimethoxybenzyl)-4-n-butyl-piperazine]",percent lengthening of refractory period at 0.01 µM,[1],31%
"COc1ccc(CC2(C)CN(C(c3ccccc3)c3ccccc3)CCN2CCO)cc1OC (stereo not drawn) [(D)-1-diphenylmethyl-3-methyl-3-(3,4-dimethoxybenzyl)-4-hydr] [(D)-1-diphenylmethyl-3-methyl-3-(3,4-dimethoxybenzyl)-4-hydroxyethyl-piperazine]",Antiarrhythmic Effect (Lengthening of the refractory period in percent),[1],72%
"CC[C@H]1[C@@H]2C[C@H]3[C@@H]4N(C)c5ccccc5[C@]45C[C@@H]([C@@H]2[C@H]5O)N3[C@@H]1O [Ajmaline, reference compound]",percent lengthening of refractory period at 0.01 µM,[1],14%
"COc1ccc(CC2(C)CN(C(c3ccccc3)c3ccccc3)CCN2CCO)cc1OC (stereo not drawn) [1-diphenylmethyl-3-methyl-3-(3,4-dimethoxybenzyl)-4-hydroxyethylpiperazine]",percent lengthening of refractory period at 0.01 µM,[1],55%
"COc1ccc(CC2(C)CN(C(c3ccccc3)c3ccccc3)CCN2C)cc1OC (stereo not drawn) [1-diphenylmethyl-3-methyl-3-(3,4-dimethoxybenzyl)-4-methyl-p] [1-diphenylmethyl-3-methyl-3-(3,4-dimethoxybenzyl)-4-methyl-piperazine]",Antiarrhythmic Effect (Lengthening of the refractory period in percent),[1],64%
"CCC[N+]12[C@H](O)[C@@H](CC)[C@@H]3C[C@H]1[C@@H]1N(C)c4ccccc4[C@]14C[C@H]2[C@@H]3[C@H]4O [N-n-propylajmaline, reference compound]",Antiarrhythmic Effect (Lengthening of the Refractory Period) ED25,[1],0.0037
same,Inotropic Effect (Decrease in Contractile Force) ED25,[2],0.0015
same,Therapeutic Breadth (III/II),[2],0.4
"COc1ccc(CC2(C)CN(C(c3ccccc3)c3ccccc3)CCN2C)cc1OC (stereo not drawn) [(D)-1-diphenylmethyl-3-methyl-3-(3,4-dimethoxybenzyl)-4-meth] [(D)-1-diphenylmethyl-3-methyl-3-(3,4-dimethoxybenzyl)-4-methyl-piperazine]",Antiarrhythmic Effect (Lengthening of the Refractory Period) ED25,[1],0.0063
same,Antiarrhythmic Effect (Lengthening of the refractory period in percent),[1],50%
same,Inotropic Effect (Decrease in Contractile Force) ED25,[2],0.0093
same,higher dose of aconitine required before the appearance of extrasystoles,[3],68%
same,higher dose of aconitine required before the appearance of ventricular flutter,[3],70%
same,higher dose of aconitine required before the appearance of ventricular tachycardia,[3],75%
CCN(CC)CCNC(=O)c1ccc(N)cc1 [Procainamide],ED25,"[4]; intravenous, dose raising administered aconitine dose by 25 percent prior to extrasystoles, read-out: Extrasystoles ED25",6.8 mg/kg
same,ED25,[4]; [6],6.8 mg/kg
same,ED50,"[4]; intravenous, dose raising administered aconitine dose by 50 percent prior to extrasystoles, read-out: Extrasystoles ED50",52.6 mg/kg
same,ED50,[4]; [7],29.1 mg/kg
same,Ventricular Flutter ED25,[4]; intravenous,+
same,Ventricular Flutter ED50,[4]; intravenous,+
same,higher dose of aconitine required before the appearance of extrasystoles,[3],16%
same,higher dose of aconitine required before the appearance of ventricular flutter,[3],29%
same,higher dose of aconitine required before the appearance of ventricular tachycardia,[3],12%
"COc1ccc(CC2(C)CN(C(c3ccccc3)c3ccc(Cl)cc3)CCN2)cc1OC (stereo not drawn) [1-(p-chlorophenyl-phenylmethyl)-3-methyl-3-(3,4-dimethoxybenzyl)-piperazine]",percent lengthening of refractory period at 0.01 µM,[1],28%
"CCN1CCN(C(c2ccccc2)c2ccccc2)CC1(C)Cc1ccc(OC)c(OC)c1 (stereo not drawn) [(D)-1-diphenylmethyl-3-methyl-3-(3,4-dimethoxybenzyl)-4-ethy] [(D)-1-diphenylmethyl-3-methyl-3-(3,4-dimethoxybenzyl)-4-ethyl-piperazine]",Antiarrhythmic Effect (Lengthening of the refractory period in percent),[1],50%
"COc1ccc(CC2(C)CN(C(c3ccccc3)c3ccc(Cl)cc3)CCN2CCO)cc1OC (stereo not drawn) [1-(p-chlorophenyl-phenylmethyl)-3-methyl-3-(3,4-dimethoxybenzyl)-4-hydroxyethyl-piperazine]",percent lengthening of refractory period at 0.01 µM,[1],55%
C1CCN2C[C@@H]3C[C@@H](CN4CCCC[C@@H]34)[C@H]2C1 [Sparteine],ED25,[4]; [6],4.4 mg/kg
same,ED50,[4]; [7],9.5 mg/kg
same,Extrasystoles ED25,"[4]; intravenous, dose raising administered aconitine dose by 25 percent prior to extrasystoles",+
same,Ventricular Flutter ED25,[4]; intravenous,+
same,Extrasystoles ED50,"[4]; intravenous, dose raising administered aconitine dose by 50 percent prior to extrasystoles",+
same,Ventricular Flutter ED50,[4]; intravenous,+
"COc1ccc(CC2(C)CN(C(c3ccccc3)c3ccccc3)CCN2)cc1OC (stereo not drawn) [(D)-1-diphenylmethyl-3-methyl-3-(3,4-dimethoxybenzyl)-pipera] [(D)-1-diphenylmethyl-3-methyl-3-(3,4-dimethoxybenzyl)-piperazine]",Antiarrhythmic Effect (Lengthening of the refractory period in percent),[1],31%
"COc1ccc(CC2(C)CN(C(c3ccccc3)c3ccccc3)CCN2C)cc1OC (stereo not drawn) [(L)-1-diphenylmethyl-3-methyl-3-(3,4-dimethoxybenzyl)-4-meth] [(L)-1-diphenylmethyl-3-methyl-3-(3,4-dimethoxybenzyl)-4-methyl-piperazine]",Antiarrhythmic Effect (Lengthening of the Refractory Period) ED25,[1],0.0056
same,Antiarrhythmic Effect (Lengthening of the refractory period in percent),[1],73%
same,Inotropic Effect (Decrease in Contractile Force) ED25,[2],0.0052
same,Therapeutic Breadth (III/II),[2],0.9
"CCN1CCN(C(c2ccccc2)c2ccccc2)CC1(C)Cc1ccc(OC)c(OC)c1 (stereo not drawn) [(L)-1-diphenylmethyl-3-methyl-3-(3,4-dimethoxybenzyl)-4-ethyl-piperazine]",percent lengthening of refractory period at 0.01 µM,[1],48%
"c1ccc(CN(CC2=NCCN2)c2ccccc2)cc1 [Antazoline, reference compound]",Antiarrhythmic Effect (Lengthening of the Refractory Period) ED25,[1],0.164
same,selectivity ratio,[5],0.6
same,Inotropic Effect (Decrease in Contractile Force) ED25,[2],0.094
"COc1ccc(CC2(C)CN(C(c3ccccc3)c3ccccc3)CCN2C)cc1OC (stereo not drawn) [(D)-1-diphenylmethyl-3-methyl-3-(3,4-dimethoxybenzyl)-4-methyl-piperazine]",selectivity ratio,[5],1.5
same,ED25,"[4]; iv, read-out: Extrasystoles ED25",0.94 mg/kg
same,ED50,"[4]; iv, read-out: Extrasystoles ED50",1.21 mg/kg
same,ED25,"[4]; iv, read-out: Ventricular Flutter ED25",0.84 mg/kg
same,ED50,"[4]; iv, read-out: Ventricular Flutter ED50",1.23 mg/kg
same,ED25,"[4]; iv, read-out: Ventricular Tachycardia ED25",0.94 mg/kg
same,ED50,"[4]; iv, read-out: Ventricular Tachycardia ED50",1.26 mg/kg
"CCCN1CCN(C(c2ccccc2)c2ccccc2)CC1(C)Cc1ccc(OC)c(OC)c1 (stereo not drawn) [(D)-1-diphenylmethyl-3-methyl-3-(3,4-dimethoxybenzyl)-4-n-propyl-piperazine]",percent lengthening of refractory period at 0.01 µM,[1],51%
